{"source": "paper PMC6757289", "about": "“Design and Characterization of SGK3-PROTAC1, an Isoform Specific SGK3 Kinase PROTAC Degrader” (ACS Chemical Biology, 2019)", "test_in_all_cases": "kinase profiling panel", "type_in_all_cases": "biochemical", "conditions_in_all_cases": "read-out: % Activity Remaining", "key": {"LKB1": {"biological_target": "T1, LKB1 (Homo sapiens, UniProt Q15831)", "T1 sequence (Q15831 1-433)": "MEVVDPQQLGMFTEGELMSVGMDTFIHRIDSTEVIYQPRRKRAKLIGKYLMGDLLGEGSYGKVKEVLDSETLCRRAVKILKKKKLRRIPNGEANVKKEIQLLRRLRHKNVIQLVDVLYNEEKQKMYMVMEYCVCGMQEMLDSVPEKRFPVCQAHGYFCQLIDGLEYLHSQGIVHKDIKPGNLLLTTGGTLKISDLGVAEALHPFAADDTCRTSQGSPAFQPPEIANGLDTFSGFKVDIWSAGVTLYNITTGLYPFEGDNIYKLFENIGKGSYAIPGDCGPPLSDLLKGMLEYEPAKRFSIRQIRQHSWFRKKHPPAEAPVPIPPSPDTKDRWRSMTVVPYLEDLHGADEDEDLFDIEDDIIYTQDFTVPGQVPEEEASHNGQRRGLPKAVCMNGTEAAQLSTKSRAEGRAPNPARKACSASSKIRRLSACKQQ", "T1 sequence (Q7RTN6 1-431 partner)": "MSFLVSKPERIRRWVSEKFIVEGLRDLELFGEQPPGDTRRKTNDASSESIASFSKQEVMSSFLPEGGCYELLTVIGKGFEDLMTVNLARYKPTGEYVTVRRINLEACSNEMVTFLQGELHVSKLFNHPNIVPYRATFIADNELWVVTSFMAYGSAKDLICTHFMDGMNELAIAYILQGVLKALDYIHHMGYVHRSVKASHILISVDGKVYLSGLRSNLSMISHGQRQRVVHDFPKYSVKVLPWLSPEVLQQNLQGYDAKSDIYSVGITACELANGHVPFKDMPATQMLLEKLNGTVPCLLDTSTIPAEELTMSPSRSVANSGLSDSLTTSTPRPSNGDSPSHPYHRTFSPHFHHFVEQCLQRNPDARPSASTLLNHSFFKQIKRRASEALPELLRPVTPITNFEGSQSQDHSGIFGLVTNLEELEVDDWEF", "T1 sequence (Q9Y376 1-341 partner)": "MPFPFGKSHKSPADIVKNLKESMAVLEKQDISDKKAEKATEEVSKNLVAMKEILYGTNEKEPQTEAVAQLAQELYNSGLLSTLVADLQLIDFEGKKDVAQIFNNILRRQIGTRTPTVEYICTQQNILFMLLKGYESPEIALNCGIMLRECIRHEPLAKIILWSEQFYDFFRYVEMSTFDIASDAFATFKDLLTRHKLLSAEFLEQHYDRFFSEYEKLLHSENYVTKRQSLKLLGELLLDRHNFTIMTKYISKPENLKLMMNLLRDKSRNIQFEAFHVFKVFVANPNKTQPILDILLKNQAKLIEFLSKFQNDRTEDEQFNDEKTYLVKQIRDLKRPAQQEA", "description": "(§1) Protein kinase profiling against a Dundee panel of 140 protein kinases was undertaken at the International Centre for Protein Kinase Profiling. The result for each kinase was presented as a mean kinase activity of the reaction taken in triplicate relative to a control sample treated with DMSO. Assay conditions and abbreviations are available at http://www.kinase-screen.mrc.ac.uk."}, "EPH-B3": {"biological_target": "T2, EPH-B3 (Homo sapiens, UniProt P54753)", "T2 sequence (P54753 34-998)": "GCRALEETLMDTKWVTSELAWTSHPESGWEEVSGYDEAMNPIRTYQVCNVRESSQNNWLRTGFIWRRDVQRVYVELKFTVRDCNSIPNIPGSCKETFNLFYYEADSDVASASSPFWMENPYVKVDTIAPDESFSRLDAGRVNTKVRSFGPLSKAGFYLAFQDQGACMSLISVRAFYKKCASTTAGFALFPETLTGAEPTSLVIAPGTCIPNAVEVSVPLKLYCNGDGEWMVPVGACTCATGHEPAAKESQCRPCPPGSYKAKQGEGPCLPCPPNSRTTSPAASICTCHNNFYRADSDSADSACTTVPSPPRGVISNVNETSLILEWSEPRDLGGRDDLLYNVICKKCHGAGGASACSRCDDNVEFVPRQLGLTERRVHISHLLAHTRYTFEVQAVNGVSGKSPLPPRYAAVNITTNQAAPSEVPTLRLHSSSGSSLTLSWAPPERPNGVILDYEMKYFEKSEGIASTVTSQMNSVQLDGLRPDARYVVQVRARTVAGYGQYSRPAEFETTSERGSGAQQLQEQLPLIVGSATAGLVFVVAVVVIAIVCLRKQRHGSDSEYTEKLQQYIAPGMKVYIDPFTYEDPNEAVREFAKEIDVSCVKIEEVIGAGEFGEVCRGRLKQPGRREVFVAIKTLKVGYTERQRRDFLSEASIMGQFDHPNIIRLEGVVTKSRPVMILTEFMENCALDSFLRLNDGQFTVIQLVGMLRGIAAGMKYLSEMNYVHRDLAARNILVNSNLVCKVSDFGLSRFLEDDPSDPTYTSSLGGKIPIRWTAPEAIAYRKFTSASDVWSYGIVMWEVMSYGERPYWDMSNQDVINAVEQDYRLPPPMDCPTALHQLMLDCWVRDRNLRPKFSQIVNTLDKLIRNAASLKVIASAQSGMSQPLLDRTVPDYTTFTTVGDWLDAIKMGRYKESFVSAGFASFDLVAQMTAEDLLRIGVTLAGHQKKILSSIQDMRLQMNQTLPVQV", "description": "as §1"}, "CDK2-Cyclin A": {"biological_target": "CDK2-Cyclin A (Homo sapiens, UniProt P24941)", "description": "as §1"}}, "note": "Where two headings read alike, the source gives them in different places."}
{"smiles": "Cc1ccc(F)c(S(=O)(=O)Nc2ccc(-c3nc(OC[C@H]4CN(CCCCCCOCCOCCOCC(=O)N[C@H](C(=O)N5C[C@H](O)C[C@H]5C(=O)NCc5ccc(-c6scnc6C)cc5)C(C)(C)C)CCO4)c4cn[nH]c4n3)cc2)c1", "note": "[SGK3-PROTAC1]", "values": [{"measurement": "remaining activity at 1 µM", "setting": "LKB1; 1 µM", "result": 105, "unit": "%"}, {"measurement": "remaining activity at 1 µM", "setting": "EPH-B3; 1 µM", "result": 92, "unit": "%"}, {"measurement": "remaining activity at 1 µM", "setting": "CDK2-Cyclin A; 1 µM", "result": 101, "unit": "%"}]}
{"smiles": "Cc1ccc(F)c(S(=O)(=O)Nc2ccc(-c3nc(OC[C@H]4CNCCO4)c4cn[nH]c4n3)cc2)c1", "note": "[308-R, reference compound]", "values": [{"measurement": "remaining activity at 1 µM", "setting": "LKB1", "result": 96, "unit": "%"}, {"measurement": "remaining activity at 1 µM", "setting": "EPH-B3", "result": 64, "unit": "%"}, {"measurement": "remaining activity at 1 µM", "setting": "CDK2-Cyclin A", "result": 61, "unit": "%"}]}
{"smiles": "COc1ccc(Cl)c(S(=O)(=O)Nc2ccc(-c3nc(OC[C@H]4CNCCO4)c4c(C)n[nH]c4n3)cc2)c1", "note": "[290-R, reference compound]", "values": [{"measurement": "remaining activity at 1 µM", "setting": "LKB1", "result": 106, "unit": "%"}, {"measurement": "remaining activity at 1 µM", "setting": "EPH-B3", "result": 104, "unit": "%"}, {"measurement": "remaining activity at 1 µM", "setting": "CDK2-Cyclin A", "result": 94, "unit": "%"}]}
{"smiles": "Cc1ccc(F)c(S(=O)(=O)Nc2ccc(-c3nc(OC[C@H]4CN(CCCCCCOCCOCCOCC(=O)N[C@H](C(=O)N5C[C@@H](O)C[C@H]5C(=O)NCc5ccc(-c6scnc6C)cc5)C(C)(C)C)CCO4)c4cn[nH]c4n3)cc2)c1", "note": "[cisSGK3-PROTAC1]", "values": [{"measurement": "remaining activity at 1 µM", "setting": "LKB1; 1 µM", "result": 112, "unit": "%"}, {"measurement": "remaining activity at 1 µM", "setting": "EPH-B3; 1 µM", "result": 104, "unit": "%"}, {"measurement": "remaining activity at 1 µM", "setting": "CDK2-Cyclin A; 1 µM", "result": 103, "unit": "%"}]}
